Assay results as given in the kinase profiling compilation of Christmann-Franck et al. (2016).
“And” between values parts separate entries of the source, which are not always exact repeats. Identical values can stand only once.

What was measured:
Assay in all cases: KINOMEscan competition binding
Conditions in all cases: compound 10.0 µM
[1] = test system: ABL1 (human), P00519 [Y253F]
AKT1 (human) = AKT1 (human) (UniProt P31749)
AURKA (human) = AURKA (human) (UniProt O14965)
BMPR1A (human) = BMPR1A (human) (UniProt P36894)
BMX (human) = BMX (human) (UniProt P51813)
CAMK1 (human) = CAMK1 (human) (UniProt Q14012)
CDK17 (human) = CDK17 (human) (UniProt Q00537)
Chain of CDK17 (human) (Q00537 whole entry, looked up): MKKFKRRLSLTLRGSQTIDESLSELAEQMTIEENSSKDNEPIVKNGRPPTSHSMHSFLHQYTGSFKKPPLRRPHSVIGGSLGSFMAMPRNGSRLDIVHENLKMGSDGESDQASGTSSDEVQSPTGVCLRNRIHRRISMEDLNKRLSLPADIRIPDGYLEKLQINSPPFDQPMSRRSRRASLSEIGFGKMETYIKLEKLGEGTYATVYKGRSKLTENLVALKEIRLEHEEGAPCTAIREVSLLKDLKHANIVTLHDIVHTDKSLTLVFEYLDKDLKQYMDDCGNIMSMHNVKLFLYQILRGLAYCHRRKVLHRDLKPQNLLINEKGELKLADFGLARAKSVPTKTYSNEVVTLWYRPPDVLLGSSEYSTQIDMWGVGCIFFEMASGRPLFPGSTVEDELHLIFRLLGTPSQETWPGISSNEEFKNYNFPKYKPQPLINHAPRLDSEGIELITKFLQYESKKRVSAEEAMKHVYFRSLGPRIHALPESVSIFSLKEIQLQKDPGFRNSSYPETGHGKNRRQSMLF

CDK5 (human) = CDK5 (human) (UniProt Q00535)
CHEK2 (human) = CHEK2 (human) (UniProt O96017)
DDR2 (human) = DDR2 (human) (UniProt Q16832)
EGFR (human) = EGFR (human) (UniProt P00533)
[2] = test system: EGFR (human), P00533 [G719C; 746-750 del]
EPHA1 (human) = EPHA1 (human) (UniProt P21709)
EPHA2 (human) = EPHA2 (human) (UniProt P29317)
FGFR3 (human) = FGFR3 (human) (UniProt P22607)
Chain of FGFR3 (human) (P22607 whole entry, looked up): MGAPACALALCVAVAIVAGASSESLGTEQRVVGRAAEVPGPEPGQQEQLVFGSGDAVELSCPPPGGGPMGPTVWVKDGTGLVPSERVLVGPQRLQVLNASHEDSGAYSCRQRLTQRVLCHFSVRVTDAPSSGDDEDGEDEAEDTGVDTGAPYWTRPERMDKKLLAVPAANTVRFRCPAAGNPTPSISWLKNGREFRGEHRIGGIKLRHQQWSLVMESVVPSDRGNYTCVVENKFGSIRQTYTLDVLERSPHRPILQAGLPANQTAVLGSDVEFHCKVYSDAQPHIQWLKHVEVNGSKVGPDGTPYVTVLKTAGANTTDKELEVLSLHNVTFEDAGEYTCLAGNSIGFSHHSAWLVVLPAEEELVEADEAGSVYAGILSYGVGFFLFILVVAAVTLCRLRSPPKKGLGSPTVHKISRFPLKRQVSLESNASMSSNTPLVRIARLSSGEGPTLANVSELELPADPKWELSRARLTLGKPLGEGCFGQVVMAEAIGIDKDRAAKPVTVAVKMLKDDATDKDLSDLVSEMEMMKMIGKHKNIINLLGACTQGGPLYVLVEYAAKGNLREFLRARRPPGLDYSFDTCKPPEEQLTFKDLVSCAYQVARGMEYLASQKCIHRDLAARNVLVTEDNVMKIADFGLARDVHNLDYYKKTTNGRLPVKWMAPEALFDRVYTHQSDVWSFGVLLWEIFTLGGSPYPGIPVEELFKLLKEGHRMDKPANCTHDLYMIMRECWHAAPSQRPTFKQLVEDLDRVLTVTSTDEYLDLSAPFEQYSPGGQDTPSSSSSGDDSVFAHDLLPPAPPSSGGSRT

FLT4 (human) = FLT4 (human) (UniProt P35916)
IRAK3 (human) = IRAK3 (human) (UniProt Q9Y616)
LATS2 (human) = LATS2 (human) (UniProt Q9NRM7)
LYN (human) = LYN (human) (UniProt P07948)
MAP4K1 (human) = MAP4K1 (human) (UniProt Q92918)
MAPK12 (human) = MAPK12 (human) (UniProt P53778)
Chain of MAPK12 (human) (P53778 whole entry, looked up): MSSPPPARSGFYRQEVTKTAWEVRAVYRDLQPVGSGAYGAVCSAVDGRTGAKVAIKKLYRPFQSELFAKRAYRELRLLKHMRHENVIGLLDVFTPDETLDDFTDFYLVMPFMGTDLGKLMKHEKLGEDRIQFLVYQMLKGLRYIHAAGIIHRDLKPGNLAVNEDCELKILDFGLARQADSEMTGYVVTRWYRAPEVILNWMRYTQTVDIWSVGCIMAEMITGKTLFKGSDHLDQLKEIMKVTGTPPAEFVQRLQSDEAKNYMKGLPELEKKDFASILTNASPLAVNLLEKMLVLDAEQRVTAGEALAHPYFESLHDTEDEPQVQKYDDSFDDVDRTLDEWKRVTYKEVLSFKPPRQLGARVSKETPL

MAPKAPK2 (human) = MAPKAPK2 (human) (UniProt P49137)
MERTK (human) = MERTK (human) (UniProt Q12866)
NEK9 (human) = NEK9 (human) (UniProt Q8TD19)
PDGFRA (human) = PDGFRA (human) (UniProt P16234)
PDPK1 (human) = PDPK1 (human) (UniProt O15530)
Chain of PDPK1 (human) (O15530 whole entry, looked up): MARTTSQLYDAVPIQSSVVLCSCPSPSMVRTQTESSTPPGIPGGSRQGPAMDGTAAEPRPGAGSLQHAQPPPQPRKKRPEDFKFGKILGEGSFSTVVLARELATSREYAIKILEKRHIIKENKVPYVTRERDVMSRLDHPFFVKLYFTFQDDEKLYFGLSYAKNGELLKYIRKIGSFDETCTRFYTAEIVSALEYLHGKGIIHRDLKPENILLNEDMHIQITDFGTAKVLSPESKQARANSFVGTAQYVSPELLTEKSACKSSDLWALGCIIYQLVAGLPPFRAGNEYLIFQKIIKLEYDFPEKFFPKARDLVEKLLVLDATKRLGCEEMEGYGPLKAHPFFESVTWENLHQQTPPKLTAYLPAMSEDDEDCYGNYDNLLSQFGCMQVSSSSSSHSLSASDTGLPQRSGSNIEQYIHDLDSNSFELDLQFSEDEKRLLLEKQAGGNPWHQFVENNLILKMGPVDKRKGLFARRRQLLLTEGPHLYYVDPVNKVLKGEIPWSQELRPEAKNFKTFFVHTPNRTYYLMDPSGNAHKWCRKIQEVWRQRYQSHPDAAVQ

PIK3CA (human) = PIK3CA (human) (UniProt P42336)
PKMYT1 (human) = PKMYT1 (human) (UniProt Q99640)
Chain of PKMYT1 (human) (Q99640 whole entry, looked up): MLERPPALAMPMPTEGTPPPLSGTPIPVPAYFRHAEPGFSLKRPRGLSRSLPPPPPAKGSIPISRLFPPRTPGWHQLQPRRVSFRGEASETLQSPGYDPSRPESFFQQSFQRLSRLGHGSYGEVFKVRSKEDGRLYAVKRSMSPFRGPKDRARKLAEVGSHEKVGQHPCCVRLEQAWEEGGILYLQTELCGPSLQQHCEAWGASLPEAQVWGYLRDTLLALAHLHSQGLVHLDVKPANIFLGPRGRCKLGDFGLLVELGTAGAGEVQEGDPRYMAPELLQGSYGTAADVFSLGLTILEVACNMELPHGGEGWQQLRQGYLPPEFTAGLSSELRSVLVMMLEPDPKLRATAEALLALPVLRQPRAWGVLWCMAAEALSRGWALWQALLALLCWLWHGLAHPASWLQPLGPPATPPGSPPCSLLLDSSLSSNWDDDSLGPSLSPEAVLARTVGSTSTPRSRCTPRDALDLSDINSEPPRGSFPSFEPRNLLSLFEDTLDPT

PKN1 (human) = PKN1 (human) (UniProt Q16512)
PRKCE (human) = PRKCE (human) (UniProt Q02156)
PRKCH (human) = PRKCH (human) (UniProt P24723)
PRKCQ (human) = PRKCQ (human) (UniProt Q04759)
PTK6 (human) = PTK6 (human) (UniProt Q13882)
Chain of PTK6 (human) (Q13882 whole entry, looked up): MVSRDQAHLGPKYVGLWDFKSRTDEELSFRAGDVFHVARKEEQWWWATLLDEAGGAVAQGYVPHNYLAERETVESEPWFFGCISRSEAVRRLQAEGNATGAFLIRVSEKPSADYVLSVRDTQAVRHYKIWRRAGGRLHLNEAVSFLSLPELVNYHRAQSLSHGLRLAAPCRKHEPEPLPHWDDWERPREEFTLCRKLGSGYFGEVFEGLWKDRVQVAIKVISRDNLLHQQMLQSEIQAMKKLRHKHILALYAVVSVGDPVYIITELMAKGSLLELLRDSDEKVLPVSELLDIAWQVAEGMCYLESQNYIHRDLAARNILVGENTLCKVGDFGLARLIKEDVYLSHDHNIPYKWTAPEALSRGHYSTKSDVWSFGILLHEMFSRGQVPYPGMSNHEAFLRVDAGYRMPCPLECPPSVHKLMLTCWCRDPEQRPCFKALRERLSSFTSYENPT

[3] = test system: RET (human), P07949 [V804M]
Chain of RET (human), P07949 [V804M] (P07949 whole entry V804M, looked up): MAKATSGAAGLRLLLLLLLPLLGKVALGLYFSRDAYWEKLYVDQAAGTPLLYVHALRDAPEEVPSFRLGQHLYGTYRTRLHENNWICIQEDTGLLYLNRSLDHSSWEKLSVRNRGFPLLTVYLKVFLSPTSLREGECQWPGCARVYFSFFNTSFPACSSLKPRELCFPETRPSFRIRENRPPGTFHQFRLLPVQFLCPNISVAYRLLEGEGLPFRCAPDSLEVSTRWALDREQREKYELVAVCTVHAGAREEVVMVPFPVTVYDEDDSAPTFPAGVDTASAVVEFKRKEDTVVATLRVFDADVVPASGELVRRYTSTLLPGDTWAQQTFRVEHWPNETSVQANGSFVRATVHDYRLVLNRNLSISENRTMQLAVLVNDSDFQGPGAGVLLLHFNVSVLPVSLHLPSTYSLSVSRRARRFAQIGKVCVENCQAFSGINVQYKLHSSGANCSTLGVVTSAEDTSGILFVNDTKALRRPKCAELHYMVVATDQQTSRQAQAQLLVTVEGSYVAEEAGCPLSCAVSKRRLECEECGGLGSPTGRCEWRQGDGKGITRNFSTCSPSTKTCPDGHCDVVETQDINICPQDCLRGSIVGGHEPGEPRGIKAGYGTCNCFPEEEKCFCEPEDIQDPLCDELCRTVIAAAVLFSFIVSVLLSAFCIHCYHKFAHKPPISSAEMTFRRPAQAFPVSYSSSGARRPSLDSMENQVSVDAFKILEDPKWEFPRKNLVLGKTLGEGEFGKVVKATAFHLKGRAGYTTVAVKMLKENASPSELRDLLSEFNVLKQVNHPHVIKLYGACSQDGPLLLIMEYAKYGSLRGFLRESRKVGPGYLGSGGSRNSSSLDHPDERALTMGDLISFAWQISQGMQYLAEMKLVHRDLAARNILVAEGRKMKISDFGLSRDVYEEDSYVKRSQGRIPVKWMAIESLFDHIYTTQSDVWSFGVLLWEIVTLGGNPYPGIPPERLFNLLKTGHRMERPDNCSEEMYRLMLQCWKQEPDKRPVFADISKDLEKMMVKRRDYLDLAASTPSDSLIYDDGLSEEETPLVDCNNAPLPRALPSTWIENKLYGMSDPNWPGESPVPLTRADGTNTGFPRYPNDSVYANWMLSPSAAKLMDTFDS

ROCK2 (human) = ROCK2 (human) (UniProt O75116)
RPS6KA3 KD1 (human) = RPS6KA3 KD1 (human) (UniProt P51812)
RPS6KA5 KD1 (human) = RPS6KA5 KD1 (human) (UniProt O75582)
STK32B (human) = STK32B (human) (UniProt Q9NY57)
SYK (human) = SYK (human) (UniProt P43405)
TEC (human) = TEC (human) (UniProt P42680)
TIE1 (human) = TIE1 (human) (UniProt P35590)
ZAP70 (human) = ZAP70 (human) (UniProt P43403)
Chain of ZAP70 (human) (P43403 whole entry, looked up): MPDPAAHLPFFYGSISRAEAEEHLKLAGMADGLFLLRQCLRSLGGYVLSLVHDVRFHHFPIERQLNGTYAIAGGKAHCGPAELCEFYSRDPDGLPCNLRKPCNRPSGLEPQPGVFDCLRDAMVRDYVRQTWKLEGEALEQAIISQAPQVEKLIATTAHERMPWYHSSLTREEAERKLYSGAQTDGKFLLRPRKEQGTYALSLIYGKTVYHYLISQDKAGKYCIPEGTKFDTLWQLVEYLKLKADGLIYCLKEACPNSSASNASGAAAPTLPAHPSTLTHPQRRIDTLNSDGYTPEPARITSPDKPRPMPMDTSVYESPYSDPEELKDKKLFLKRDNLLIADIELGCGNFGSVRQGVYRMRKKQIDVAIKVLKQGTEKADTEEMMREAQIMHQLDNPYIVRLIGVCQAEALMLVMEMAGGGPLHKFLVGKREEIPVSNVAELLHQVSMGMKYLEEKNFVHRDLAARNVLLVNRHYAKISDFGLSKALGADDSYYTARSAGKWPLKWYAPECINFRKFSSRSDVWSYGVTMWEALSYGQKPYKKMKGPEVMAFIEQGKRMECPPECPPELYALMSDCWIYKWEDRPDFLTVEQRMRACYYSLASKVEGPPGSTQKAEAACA

SMILES: O=C1NC(=O)/C(=C/c2c[nH]c(=O)c(-c3ccc(N4CCNCC4)nc3)c2)S1
- kinase still bound, per cent of control [1]: 95%
- kinase still bound, per cent of control (AKT1 (human)): 100%
- kinase still bound, per cent of control (AURKA (human)): 100%
- kinase still bound, per cent of control (BMPR1A (human)): 100%
- kinase still bound, per cent of control (BMX (human)): 94%
- kinase still bound, per cent of control (CAMK1 (human)): 68%
- kinase still bound, per cent of control (CDK17 (human)): 85%
- kinase still bound, per cent of control (CDK5 (human)): 100%
- kinase still bound, per cent of control (CHEK2 (human)): 70%
- kinase still bound, per cent of control (DDR2 (human)): 100%
- kinase still bound, per cent of control (EGFR (human)): 73% and 89%
- kinase still bound, per cent of control [2]: 95%
- kinase still bound, per cent of control (EPHA1 (human)): 100%
- kinase still bound, per cent of control (EPHA2 (human)): 100%
- kinase still bound, per cent of control (FGFR3 (human)): 84%
- kinase still bound, per cent of control (FLT4 (human)): 90%
- kinase still bound, per cent of control (IRAK3 (human)): 100%
- kinase still bound, per cent of control (LATS2 (human)): 100%
- kinase still bound, per cent of control (LYN (human)): 77%
- kinase still bound, per cent of control (MAP4K1 (human)): 10%
- kinase still bound, per cent of control (MAPK12 (human)): 60%
- kinase still bound, per cent of control (MAPKAPK2 (human)): 100%
- kinase still bound, per cent of control (MERTK (human)): 83%
- kinase still bound, per cent of control (NEK9 (human)): 71%
- kinase still bound, per cent of control (PDGFRA (human)): 99%
- kinase still bound, per cent of control (PDPK1 (human)): 100%
- kinase still bound, per cent of control (PIK3CA (human)): 49%
- kinase still bound, per cent of control (PKMYT1 (human)): 100%
- kinase still bound, per cent of control (PKN1 (human)): 28%
- kinase still bound, per cent of control (PRKCE (human)): 56%
- kinase still bound, per cent of control (PRKCH (human)): 100%
- kinase still bound, per cent of control (PRKCQ (human)): 44%
- kinase still bound, per cent of control (PTK6 (human)): 83%
- kinase still bound, per cent of control [3]: 88%
- kinase still bound, per cent of control (ROCK2 (human)): 56%
- kinase still bound, per cent of control (RPS6KA3 KD1 (human)): 42%
- kinase still bound, per cent of control (RPS6KA5 KD1 (human)): 100%
- kinase still bound, per cent of control (STK32B (human)): 100%
- kinase still bound, per cent of control (SYK (human)): 100%
- kinase still bound, per cent of control (TEC (human)): 84%
- kinase still bound, per cent of control (TIE1 (human)): 64%
- kinase still bound, per cent of control (ZAP70 (human)): 61%

SMILES: COc1cc(N2CCN(C)CC2)ccc1Nc1ncc2c(n1)Nc1ccccc1NC2=O
- kinase still bound, per cent of control [1]: 26%
- kinase still bound, per cent of control (AKT1 (human)): 100%
- kinase still bound, per cent of control (AURKA (human)): 78%
- kinase still bound, per cent of control (BMPR1A (human)): 80%
- kinase still bound, per cent of control (BMX (human)): 99%
- kinase still bound, per cent of control (CAMK1 (human)): 100%
- kinase still bound, per cent of control (CDK17 (human)): 93%
- kinase still bound, per cent of control (CDK5 (human)): 87%
- kinase still bound, per cent of control (CHEK2 (human)): 84%
- kinase still bound, per cent of control (DDR2 (human)): 100%
- kinase still bound, per cent of control [2]: 39%
- kinase still bound, per cent of control (EPHA1 (human)): 74%
- kinase still bound, per cent of control (EPHA2 (human)): 100%
- kinase still bound, per cent of control (FGFR3 (human)): 97%
- kinase still bound, per cent of control (FLT4 (human)): 10%
- kinase still bound, per cent of control (IRAK3 (human)): 79%
- kinase still bound, per cent of control (LATS2 (human)): 89%
- kinase still bound, per cent of control (LYN (human)): 77%
- kinase still bound, per cent of control (MAP4K1 (human)): 100%
- kinase still bound, per cent of control (MAPK12 (human)): 81%
- kinase still bound, per cent of control (MAPKAPK2 (human)): 96%
- kinase still bound, per cent of control (MERTK (human)): 80%
- kinase still bound, per cent of control (NEK9 (human)): 87%
- kinase still bound, per cent of control (PDGFRA (human)): 91%
- kinase still bound, per cent of control (PDPK1 (human)): 82%
- kinase still bound, per cent of control (PIK3CA (human)): 100%
- kinase still bound, per cent of control (PKMYT1 (human)): 100%
- kinase still bound, per cent of control (PKN1 (human)): 69%
- kinase still bound, per cent of control (PRKCE (human)): 93%
- kinase still bound, per cent of control (PRKCH (human)): 96%
- kinase still bound, per cent of control (PRKCQ (human)): 59%
- kinase still bound, per cent of control (PTK6 (human)): 82%
- kinase still bound, per cent of control [3]: 100%
- kinase still bound, per cent of control (ROCK2 (human)): 48%
- kinase still bound, per cent of control (RPS6KA3 KD1 (human)): 72%
- kinase still bound, per cent of control (RPS6KA5 KD1 (human)): 90%
- kinase still bound, per cent of control (STK32B (human)): 93%
- kinase still bound, per cent of control (SYK (human)): 91%
- kinase still bound, per cent of control (TEC (human)): 87%
- kinase still bound, per cent of control (TIE1 (human)): 24%
- kinase still bound, per cent of control (ZAP70 (human)): 100%

SMILES: COc1cc(N2CCN(C)CC2)ccc1Nc1ncc2c(n1)N(C)c1ccccc1N(C)C2=O
- kinase still bound, per cent of control [1]: 100%
- kinase still bound, per cent of control (AKT1 (human)): 91%
- kinase still bound, per cent of control (AURKA (human)): 76%
- kinase still bound, per cent of control (BMPR1A (human)): 100%
- kinase still bound, per cent of control (BMX (human)): 96%
- kinase still bound, per cent of control (CAMK1 (human)): 100%
- kinase still bound, per cent of control (CDK17 (human)): 100%
- kinase still bound, per cent of control (CDK5 (human)): 100%
- kinase still bound, per cent of control (CHEK2 (human)): 97%
- kinase still bound, per cent of control (DDR2 (human)): 100%
- kinase still bound, per cent of control [2]: 61%
- kinase still bound, per cent of control (EPHA1 (human)): 100%
- kinase still bound, per cent of control (EPHA2 (human)): 100%
- kinase still bound, per cent of control (FGFR3 (human)): 100%
- kinase still bound, per cent of control (FLT4 (human)): 100%
- kinase still bound, per cent of control (IRAK3 (human)): 82%
- kinase still bound, per cent of control (LATS2 (human)): 75%
- kinase still bound, per cent of control (LYN (human)): 79%
- kinase still bound, per cent of control (MAP4K1 (human)): 100%
- kinase still bound, per cent of control (MAPK12 (human)): 78%
- kinase still bound, per cent of control (MAPKAPK2 (human)): 95%
- kinase still bound, per cent of control (MERTK (human)): 100%
- kinase still bound, per cent of control (NEK9 (human)): 97%
- kinase still bound, per cent of control (PDGFRA (human)): 100%
- kinase still bound, per cent of control (PDPK1 (human)): 79%
- kinase still bound, per cent of control (PIK3CA (human)): 100%
- kinase still bound, per cent of control (PKMYT1 (human)): 96%
- kinase still bound, per cent of control (PKN1 (human)): 80%
- kinase still bound, per cent of control (PRKCE (human)): 60%
- kinase still bound, per cent of control (PRKCH (human)): 76%
- kinase still bound, per cent of control (PRKCQ (human)): 83%
- kinase still bound, per cent of control (PTK6 (human)): 32%
- kinase still bound, per cent of control [3]: 100%
- kinase still bound, per cent of control (ROCK2 (human)): 50%
- kinase still bound, per cent of control (RPS6KA3 KD1 (human)): 92%
- kinase still bound, per cent of control (RPS6KA5 KD1 (human)): 100%
- kinase still bound, per cent of control (STK32B (human)): 100%
- kinase still bound, per cent of control (SYK (human)): 99%
- kinase still bound, per cent of control (TEC (human)): 100%
- kinase still bound, per cent of control (TIE1 (human)): 70%
- kinase still bound, per cent of control (ZAP70 (human)): 100%
